Experimental data published in patent publication US20150173358A1, “HERBICIDAL COMPOSITIONS CONTAINING IMAZAPIC, AMINOPYRALID AND OPTIONALLY METSULFURON” (DOW AGROSCIENCES LLC, priority 2013, published 2015).

System: BOIVE: whitehead broom (Borerria verticillata)
Test: Postemergence herbicidal activity of mixtures in the field (visual weed control)
Type: in vivo
Protocol: Field trials were conducted in Brazil in pasture area cultivated with Brachiaria brizantha using standard herbicide small-plot research methodology. The plot size used was 3×8 meter (m; width×length) with 4 replicates per treatment. The pasture was grown using normal cultural practices for fertilization, management, and maintenance to ensure good growth of the crop and the weeds.
All treatments in the field trials were applied using a carbon dioxide (CO2) backpack air sprayer with flat fan nozzles (110.03°), calibrated to apply 250 liters per hectare (L/ha) spray volume at approximately 35 pounds per square inch (PSI). Formulations of aminopyralid (triisopropanolammonium salt) at 100 grams acid equivalent per hectare (g ae/ha) and aminopyralid (potassium salt, 525grams acid equivalent per kilogram (g ae/kg))+metsulfuron-methyl (94.5 grams active ingredient per kilogram (g ai/kg)) at 118 grams per hectare (g/ha) were mixed with imazapic at 70 and 140 g ae/ha and water+Joint Mineral Oil at appropriate formulated product rates to achieve the desired rates based on a unit area of application (hectare) as shown. Treatments were rated at 15 to 281 days after application (DAA) as compared to the untreated control plants. Visual weed control of BOIVE was scored on a scale of 0 to 100 percent where 0 corresponds to no injury and 100 corresponds to complete kill.
All treatment results, both for the single product and mixtures, are an average of 3 to 4 replicates and the tank-mix interactions are significant at the […] level.
Colby's equation was used to determine the herbicidal effects expected from the mixtures (Colby, S.R. Calculation of the synergistic and antagonistic response of herbicide combinations. Weeds 1967, 15, 20-22). […]
The experiments described herein in Table 2 were performed such that the “B” component in Colby's equation was the activity for the combination of aminopyralid and metsulfuron and only the activity for the combination was determined. […]

SMILES	% Visual Control BOIVE (281 DAA) Obs (Imazapic (ammonium salt) 70 g ae/ha alone, postemergence field trial, Brazil pasture) [%]	% Visual Control BOIVE (281 DAA) Obs (Imazapic (ammonium salt) 140 g ae/ha alone, postemergence field trial) [%]	% Visual Control BOIVE (281 DAA) Obs (Aminopyralid (triisopropanolammonium salt) 100 g ae/ha alone) [%]
Cc1cnc(C2=NC(C)(C(C)C)C(=O)N2)c(C(=O)O)c1 (racemic) [Imazapic, (±)-2-[4,5-dihydro-4-methyl-4-(1-methylethyl)-5-oxo-1H-imidazol-2-yl]-5-methyl-3-pyridinecarboxylic acid]	0	14	
Nc1cc(Cl)nc(C(=O)O)c1Cl [Aminopyralid, 4-amino-3,6-dichloro-2-pyridinecarboxylic acid]			41
